Counter-ions that a name gives are not always drawn.
melting point	Structure (SMILES)
> 300 °C	CC1(C)CC[C@]2(C(=O)Nc3nnc(S)s3)CC[C@]3(C)C(=CCC4[C@@]5(C)Cc6c(n[nH]c6N)C(C)(C)C5CC[C@]43C)C2C1 (stereo partly drawn) (as salt: ammonium) [Compound 74, (4aS,6aS,6bR,13aR)-12-Amino-N-(5-mercapto-1,3,4-thiadiazol-2-yl)-2,2,6a,6b,9,9,13a-heptamethyl-2,3,4,4a,5,6,6a,6b,7,8,8a,9,11,13,13a,13b,14,15b-octadecahydro-1H-chryseno[1,2-f]indazole-4-a-carboxamide]
> 300 °C	CC1=C2[C@@H]3CC(C)(C)CC[C@]3(C(=O)O)CC[C@@]2(C)[C@]2(C)CC[C@H]3C(C)(C)c4n[nH]c(N)c4C[C@]3(C)C2C1 (stereo partly drawn) (as salt: ammonium) [Example 4, (4aS,6aS,6bR,8aR,13aR,15bS)-12-Amino-2,2,6a,6b,9,9,13a,15-octamethyl-2,3,4,4a,5,6,6a,6b,7,8,8a,9,11,13,13a,13b,14,15b-octadecahydro-1H-chryseno[1,2-f]indazole-4-a-carboxylic acid]
230 to 250 °C (dec.)	CC1(C)CC[C@]2(C(=O)n3ccnc3N)CC[C@]3(C)C(=CCC4[C@@]5(C)Cc6c(n[nH]c6N)C(C)(C)C5CC[C@]43C)C2C1 (stereo partly drawn) (as salt: ammonium) [Compound 73, (2-Amino-1H-imidazol-1-yl)((4aS,6aS,6bR,13aR)-12-amino-2,2,6a,6b,9,9,13a-heptamethyl-2,3,4,4a,5,6,6a,6b,7,8,8a,9,11,13,13a,13b,14,15b-octadecahydro-1H-chryseno[1,2-f]indazol-4-a-yl)methanone]
275 to 295 °C (dec.)	CC1(C)CC[C@]2(C(=O)Nc3cc(O)[nH]n3)CC[C@]3(C)C(=CCC4[C@@]5(C)Cc6c(n[nH]c6N)C(C)(C)C5CC[C@]43C)C2C1 (stereo partly drawn) (as salt: ammonium) [Compound 66, (4aS,6aS,6bR,13aR)-12-Amino-N-(5-hydroxy-1H-pyrazol-3-yl)-2,2,6a,6b,9,9,13a-heptamethyl-2,3,4,4a,5,6,6a,6b,7,8,8a,9,11,13,13a,13b,14,15b-octadecahydro-1H-chryseno[1,2-f]indazole-4-a-carboxamide]
210 to 230 °C (dec.)	CC1(C)CC[C@]2(C(=O)O)CC[C@]3(C)C(=C(c4ccccc4N)CC4[C@@]5(C)Cc6c(n[nH]c6N)C(C)(C)C5CC[C@]43C)C2C1 (stereo partly drawn) (as salt: ammonium) [Example 23, (4aS,6aS,6bR,13aR)-12-Amino-15-(2-aminophenyl)-2,2,6a,6b,9,9,13a-heptamethyl-2,3,4,4a,5,6,6a,6b,7,8,8a,9,11,13,13a,13b,14,15b-octadecahydro-1H-chryseno[1,2-f]indazole-4-a-carboxylic acid]
250 to 260 °C (dec.)	CC1(C)CC[C@]2(c3n[nH]c(O)c3CCN)CC[C@]3(C)C(=CCC4[C@@]5(C)Cc6c(n[nH]c6N)C(C)(C)[C@@H]5CC[C@]43C)[C@@H]2C1 (stereo partly drawn) (as salt: ammonium) [Compound 84, 3-((4aS,6aS,6bR,13aR)-12-Amino-2,2,6a,6b,9,9,13a-heptamethyl-2,3,4,4a,5,6,6a,6b,7,8,8a,9,11,13,13a,13b,14,15b-octadecahydro-1H-chryseno[1,2-f]indazol-4-a-yl)-4-(2-aminoethyl)-1H-pyrazol-5-ol]
> 300 °C	CN(C)c1ccc(C2=C3[C@@H]4CC(C)(C)CC[C@]4(C(=O)O)CC[C@@]3(C)[C@]3(C)CC[C@H]4C(C)(C)c5n[nH]c(N)c5C[C@]4(C)C3C2)cc1 (stereo partly drawn) (as salt: ammonium) [Example 10, (4aS,6aS,6bR,13aR)-12-Amino-15-(4-(dimethylamino)phenyl)-2,2,6a,6b,9,9,13a-heptamethyl-2,3,4,4a,5,6,6a,6b,7,8,8a,9,11,13,13a,13b,14,15b-octadecahydro-1H-chryseno[1,2-f]indazole-4-a-carboxylic acid]

Source: patent US8324264B1, “Inhibitors of bacterial biofilms and related methods” (Sequoia Sciences, Inc., priority 2011, dated 2012)
